Measured values: US20250353891A1 (MEDIMMUNE LIMITED, priority 2022, published 2025)
pEC50: −log10 of the molar value. Starred links: 1 amine or outer side, 2 acyl side, 3 side chain; linkers in the order of their positions; H or OH if unused. Non-standard residues stand in square brackets, D forms with d. Residues, ends and D or L forms follow the SMILES beside them. Groups on a side chain read outwards from the residue. *: point of attachment. C20 diacid = O=C(O)CCCCCCCCCCCCCCCCCCC(=O)*; C18 diacid = O=C(O)CCCCCCCCCCCCCCCCC(=O)*; γGlu = O=C(O)[C@H](CCC(=O)[*:2])N[*:1]; αMeF = C[C@](N)(Cc1ccccc1)C(=O)O; AEEA = NCCOCCOCC(=O)O; Aib = CC(C)(N)C(=O)O

Columns and labels:
[1] = molecular target: human GLP-1 receptor (hGLP-1R) (Homo sapiens, UniProt P43220); assay: cAMP production (HTRF) in CHO cells expressing hGLP-1R; type: cell-based; set-up: expressed in transfected cells; details: for pEC50: Table 6, peptides modified at position 17, cAMP in CHO hGLP-1R cells, geometric mean, read-out: hGLP-1R EC50; for % Relative Potency Ratio: Table 6, % GLP-1R activity relative to GLP-1 / % GlucR activity relative to glucagon
Summary of the method: (§1)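 Read-out: HTRF cAMP (anti-cAMP cryptate donor, cAMP-d2 acceptor in conjugate/lysis buffer), converted to % Delta F and fitted by 4-parameter logistic for EC50. Cell densities were 1×10^5 cells/mL (hGLP-1R) or 2×10^5 cells/mL (hGCGR). Stimulation lasted 30 min at room temperature.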

[2] = molecular target: human glucagon receptor (hGCGR) (Homo sapiens, UniProt P47871); assay: cAMP production (HTRF) in CHO cells expressing hGCGR; type: cell-based; set-up: expressed in transfected cells; details: Table 6, peptides modified at position 17; cAMP in CHO hGCGR cells; geometric mean; read-out: hGluc-R EC50
Summary of the method: as §1

Chain of human glucagon receptor (hGCGR) (P47871 26-477): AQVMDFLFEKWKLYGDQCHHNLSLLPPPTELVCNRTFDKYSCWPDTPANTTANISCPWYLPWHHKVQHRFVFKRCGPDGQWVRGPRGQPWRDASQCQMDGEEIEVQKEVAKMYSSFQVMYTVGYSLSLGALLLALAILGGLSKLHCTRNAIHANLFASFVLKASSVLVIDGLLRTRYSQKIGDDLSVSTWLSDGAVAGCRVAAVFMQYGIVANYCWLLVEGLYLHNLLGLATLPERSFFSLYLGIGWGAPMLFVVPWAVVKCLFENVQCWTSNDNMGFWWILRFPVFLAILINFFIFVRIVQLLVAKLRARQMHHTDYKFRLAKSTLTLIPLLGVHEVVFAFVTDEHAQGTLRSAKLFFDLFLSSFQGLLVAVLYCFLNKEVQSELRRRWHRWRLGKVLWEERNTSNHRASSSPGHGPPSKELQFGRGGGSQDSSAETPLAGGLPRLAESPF
Chain of human GLP-1 receptor (hGLP-1R) (P43220 24-463): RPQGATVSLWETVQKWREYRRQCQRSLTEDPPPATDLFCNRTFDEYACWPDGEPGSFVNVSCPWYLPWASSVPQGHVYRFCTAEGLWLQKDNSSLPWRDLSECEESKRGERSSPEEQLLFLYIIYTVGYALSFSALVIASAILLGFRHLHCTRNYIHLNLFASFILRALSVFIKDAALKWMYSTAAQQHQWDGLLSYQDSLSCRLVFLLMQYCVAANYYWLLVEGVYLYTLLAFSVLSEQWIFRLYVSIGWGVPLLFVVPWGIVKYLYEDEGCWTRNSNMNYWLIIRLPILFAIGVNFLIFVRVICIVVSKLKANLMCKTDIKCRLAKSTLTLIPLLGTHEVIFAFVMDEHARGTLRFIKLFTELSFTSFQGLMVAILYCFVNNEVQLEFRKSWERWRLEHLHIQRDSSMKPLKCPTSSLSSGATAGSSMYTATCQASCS

pEC50 [1] | % Relative Potency Ratio [1] | pEC50 [2] | SMILES
10.45 | 7.3 | 9.88 | CC(C)C[C@H](NC(=O)[C@H](Cc1c[nH]c2ccccc12)NC(=O)[C@H](CCC(N)=O)NC(=O)[C@@H](NC(=O)[C@H](Cc1ccccc1)NC(=O)[C@H](CC(=O)O)NC(=O)[C@H](CCC(N)=O)NC(=O)[C@H](C)NC(=O)[C@H](CCCNC(=N)N)NC(=O)[C@H](CCCCNC(=O)COCCOCCNC(=O)COCCOCCNC(=O)CC[C@H](NC(=O)CCCCCCCCCCCCCCCCC(=O)O)C(=O)O)NC(=O)[C@@H](NC(=O)[C@H](CC(=O)O)NC(=O)[C@H](CC(C)C)NC(=O)[C@](C)(Cc1ccccc1)NC(=O)[C@H](CCCCN)NC(=O)[C@H](CO)NC(=O)[C@@H](NC(=O)[C@H](CC(=O)O)NC(=O)[C@H](CO)NC(=O)[C@@H](NC(=O)[C@H](Cc1ccccc1)NC(=O)[C@@H](NC(=O)CNC(=O)[C@H](CCC(N)=O)NC(=O)C(C)(C)NC(=O)[C@@H](N)Cc1c[nH]cn1)[C@@H](C)O)[C@@H](C)O)C(C)C)[C@@H](C)O)C(C)C)C(=O)N[C@@H](CC(C)C)C(=O)N[C@@H](CCC(=O)O)C(=O)NC(C)(C)C(=O)NCC(N)=O [Peptide 466] (H-H[Aib]QGTFTSDVSK[αMeF]LDTK([AEEA-AEEA-γGlu-C18 diacid])RAQDFVQWLLE[Aib]G-NH2; N-terminus assumed)
10.17 | 8.6 | 9.53 | CC(C)C[C@H](NC(=O)[C@H](Cc1c[nH]c2ccccc12)NC(=O)[C@H](CCC(N)=O)NC(=O)[C@@H](NC(=O)[C@H](Cc1ccccc1)NC(=O)[C@H](CC(=O)O)NC(=O)[C@H](CCC(N)=O)NC(=O)[C@H](C)NC(=O)[C@H](CCCNC(=N)N)NC(=O)[C@H](CCCCNC(=O)COCCOCCNC(=O)COCCOCCNC(=O)CC[C@H](NC(=O)CC[C@H](NC(=O)CCCCCCCCCCCCCCCCC(=O)O)C(=O)O)C(=O)O)NC(=O)[C@@H](NC(=O)[C@H](CC(=O)O)NC(=O)[C@H](CC(C)C)NC(=O)[C@](C)(Cc1ccccc1)NC(=O)[C@H](CCCCN)NC(=O)[C@H](CO)NC(=O)[C@@H](NC(=O)[C@H](CC(=O)O)NC(=O)[C@H](CO)NC(=O)[C@@H](NC(=O)[C@H](Cc1ccccc1)NC(=O)[C@@H](NC(=O)CNC(=O)[C@H](CCC(N)=O)NC(=O)C(C)(C)NC(=O)[C@@H](N)Cc1c[nH]cn1)[C@@H](C)O)[C@@H](C)O)C(C)C)[C@@H](C)O)C(C)C)C(=O)N[C@@H](CC(C)C)C(=O)N[C@@H](CCC(=O)O)C(=O)NC(C)(C)C(=O)NCC(N)=O [Peptide 468]
9.59 | 4.2 | 9.27 | CC(C)C[C@H](NC(=O)[C@H](Cc1c[nH]c2ccccc12)NC(=O)[C@H](CCC(N)=O)NC(=O)[C@@H](NC(=O)[C@H](Cc1ccccc1)NC(=O)[C@H](CC(=O)O)NC(=O)[C@H](CCC(N)=O)NC(=O)[C@H](C)NC(=O)[C@H](CCCNC(=N)N)NC(=O)[C@H](CCCCNC(=O)COCCOCCNC(=O)COCCOCCNC(=O)CC[C@H](NC(=O)CC[C@H](NC(=O)CCCCCCCCCCCCCCCCCCC(=O)O)C(=O)O)C(=O)O)NC(=O)[C@@H](NC(=O)[C@H](CC(=O)O)NC(=O)[C@H](CC(C)C)NC(=O)[C@](C)(Cc1ccccc1)NC(=O)[C@H](CCCCN)NC(=O)[C@H](CO)NC(=O)[C@@H](NC(=O)[C@H](CC(=O)O)NC(=O)[C@H](CO)NC(=O)[C@@H](NC(=O)[C@H](Cc1ccccc1)NC(=O)[C@@H](NC(=O)CNC(=O)[C@H](CCC(N)=O)NC(=O)C(C)(C)NC(=O)[C@@H](N)Cc1c[nH]cn1)[C@@H](C)O)[C@@H](C)O)C(C)C)[C@@H](C)O)C(C)C)C(=O)N[C@@H](CC(C)C)C(=O)N[C@@H](CCC(=O)O)C(=O)NC(C)(C)C(=O)NCC(N)=O [Peptide 469] (H-H[Aib]QGTFTSDVSK[αMeF]LDTK([AEEA-AEEA-γGlu-γGlu-C20 diacid])RAQDFVQWLLE[Aib]G-NH2)
10.25 | 1.1 | 10.52 | CC(C)C[C@H](NC(=O)[C@H](Cc1c[nH]c2ccccc12)NC(=O)[C@H](CCC(N)=O)NC(=O)[C@@H](NC(=O)[C@H](Cc1ccccc1)NC(=O)[C@H](CC(=O)O)NC(=O)[C@H](CCCNC(=N)N)NC(=O)[C@H](C)NC(=O)[C@H](CCCNC(=N)N)NC(=O)[C@H](CCCCNC(=O)COCCOCCNC(=O)COCCOCCNC(=O)CC[C@H](NC(=O)CCCCCCCCCCCCCCCCCCC(=O)O)C(=O)O)NC(=O)[C@H](CCCCN)NC(=O)[C@H](CC(=O)O)NC(=O)[C@H](CC(C)C)NC(=O)[C@](C)(Cc1ccccc1)NC(=O)[C@H](CCCCN)NC(=O)[C@H](CO)NC(=O)[C@@H](NC(=O)[C@H](CC(=O)O)NC(=O)[C@H](CO)NC(=O)[C@@H](NC(=O)[C@H](Cc1ccccc1)NC(=O)[C@@H](NC(=O)CNC(=O)[C@H](CCC(N)=O)NC(=O)C(C)(C)NC(=O)[C@@H](N)Cc1c[nH]cn1)[C@@H](C)O)[C@@H](C)O)C(C)C)C(C)C)C(=O)N[C@@H](CC(C)C)C(=O)NC(C)(C)C(=O)N[C@@H](CCC(=O)O)C(N)=O [Peptide 470] (H-H[Aib]QGTFTSDVSK[αMeF]LDKK([AEEA-AEEA-γGlu-C20 diacid])RARDFVQWLL[Aib]E-NH2; N-terminus assumed)
9.99 | 1.2 | 10.20 | CC(C)C[C@H](NC(=O)[C@H](Cc1c[nH]c2ccccc12)NC(=O)[C@H](CCC(N)=O)NC(=O)[C@@H](NC(=O)[C@H](Cc1ccccc1)NC(=O)[C@H](CC(=O)O)NC(=O)[C@H](CCCNC(=N)N)NC(=O)[C@H](C)NC(=O)[C@H](CCCNC(=N)N)NC(=O)[C@H](CCCCNC(=O)COCCOCCNC(=O)COCCOCCNC(=O)CC[C@H](NC(=O)CCCCCCCCCCCCCCCCCCC(=O)O)C(=O)O)NC(=O)[C@H](CCCNC(=N)N)NC(=O)[C@H](CC(=O)O)NC(=O)[C@H](CC(C)C)NC(=O)[C@](C)(Cc1ccccc1)NC(=O)[C@H](CCCCN)NC(=O)[C@H](CO)NC(=O)[C@@H](NC(=O)[C@H](CC(=O)O)NC(=O)[C@H](CO)NC(=O)[C@@H](NC(=O)[C@H](Cc1ccccc1)NC(=O)[C@@H](NC(=O)CNC(=O)[C@H](CCC(N)=O)NC(=O)C(C)(C)NC(=O)[C@@H](N)Cc1c[nH]cn1)[C@@H](C)O)[C@@H](C)O)C(C)C)C(C)C)C(=O)N[C@@H](CC(C)C)C(=O)NC(C)(C)C(=O)N[C@@H](CCC(=O)O)C(N)=O [Peptide 471]
10.94 | 2.4 | 10.85 | CC(C)C[C@H](NC(=O)[C@H](Cc1c[nH]c2ccccc12)NC(=O)[C@H](CCC(N)=O)NC(=O)[C@@H](NC(=O)[C@H](Cc1ccccc1)NC(=O)[C@H](CC(=O)O)NC(=O)[C@H](CCCNC(=N)N)NC(=O)[C@H](C)NC(=O)[C@H](CCCNC(=N)N)NC(=O)[C@H](CCCCNC(=O)COCCOCCNC(=O)COCCOCCNC(=O)CC[C@H](NC(=O)CCCCCCCCCCCCCCCCC(=O)O)C(=O)O)NC(=O)[C@H](CCCNC(=N)N)NC(=O)[C@H](CC(=O)O)NC(=O)[C@H](CC(C)C)NC(=O)[C@](C)(Cc1ccccc1)NC(=O)[C@H](CCCCN)NC(=O)[C@H](CO)NC(=O)[C@@H](NC(=O)[C@H](CC(=O)O)NC(=O)[C@H](CO)NC(=O)[C@@H](NC(=O)[C@H](Cc1ccccc1)NC(=O)[C@@H](NC(=O)CNC(=O)[C@H](CCC(N)=O)NC(=O)C(C)(C)NC(=O)[C@@H](N)Cc1c[nH]cn1)[C@@H](C)O)[C@@H](C)O)C(C)C)C(C)C)C(=O)N[C@@H](CC(C)C)C(=O)NC(C)(C)C(=O)N[C@@H](CCC(=O)O)C(N)=O [Peptide 473] (H-H[Aib]QGTFTSDVSK[αMeF]LDRK([AEEA-AEEA-γGlu-C18 diacid])RARDFVQWLL[Aib]E-NH2; N-terminus assumed)
